How the values were obtained:
[1] = test system: human lung cancer cells (A549); experiment: Assay of cell viability with a single drug (tetrazolium dye-based MTS assay), A549; details: single agent, 48 h, value ± SE, n = 3
Experimental: To test this hypothesis, we treated human lung cancer cells for 48 h with trametinib or with three other kinase inhibitors: PD 0332991 (which is a CDK4/CDK6 inhibitor), bosutinib (which is a Src family kinase inhibitor), or crizotinib (which is an ALK inhibitor) (Boschelli et al., 2001; Fry et al., 2004; Zou et al., 2007). We measured cell viability with a tetrazolium dye-based assay for metabolic activity. The ensuing EC50 values are listed in a Table 1 and in the table in FIG. 10.
(§1) Cells in complete growth medium were plated at 5,000 cells per well in a 96-well microplate, which was incubated for 24 h. […] After 48 h, the medium was removed, and cells were incubated for 2 h with CellTiter 96® MTS reagent from Promega. Absorbance was recorded on an M1000 fluorimeter from Tecan (Morrisville, NC) at 490 nm. Data were analyzed with Prism 5.0 software from GraphPad (La Jolla, CA). Values of EC50, which is the concentration of a drug that gives half-maximal cell viability, were calculated with the equation: […]
(§2) where y is cell viability, x is the concentration of drug, and h is the Hill coefficient. Data were plotted on a log scale with each data point being the mean of 3 biological replicates.

[2] = test system: human A549 lung cancer cells; experiment: Assay of cell viability with two drugs (kinase inhibitor + ptRNase), A549; type: cell-based; details: for Synergism with ptRNase?: A549 cells, two-drug combination with ptRNase
Experimental: We measured cell viability with a tetrazolium dye-based assay for metabolic activity.
We used the EC50 values obtained from single-drug treatment (Table 1) to design subsequent drug combination experiments. Two-drug combination experiments were performed using a 5×5 matrix to interrogate 25 concentration ratios per combination.
(§3) The EC50 values obtained from single-drug cell viability assays were used to design subsequent drug combination experiments. Two-drug combination experiments were performed by using a 5×5 matrix in 96-well plates to interrogate 25 dosing pairs. Cells in complete growth medium were plated at 5,000 cells per well in a 96-well microplate, which was incubated for 24 h at 37° C. […] After 48 h, cell viability was evaluated as described above.
(§4) The dose-effect curve for each drug was determined based on experimental observations and was compared to the effect afforded by the two-drug combination to derive a CI value. The CI values for all combinations were calculated using CalcuSyn 2.0 from Biosoft (Cambridge, UK). […] Each CI value was the mean of the results from 3 biological replicates.

H358 cells (KRAS G12C) [3] = experiment: Assay of cell viability with two drugs (ARS-853 + ptRNase), H358; type: cell-based, human; details: 5×5 matrix, CI (FIG. 4C)
Experimental: as §3, §4

G12C variant of KRAS = G12C variant of KRAS (Homo sapiens, UniProt P01116, G12C); details: Patricelli et al., 2016, Lito et al.; cited from earlier work
Chain of G12C variant of KRAS (P01116 1-188 isoform P01116-2 G12C): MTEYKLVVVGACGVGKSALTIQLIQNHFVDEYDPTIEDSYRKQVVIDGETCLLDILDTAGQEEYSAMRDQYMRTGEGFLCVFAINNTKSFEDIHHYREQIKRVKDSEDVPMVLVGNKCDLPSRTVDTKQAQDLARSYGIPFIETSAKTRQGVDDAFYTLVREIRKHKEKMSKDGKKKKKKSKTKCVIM

[4] = test system: phosphorylation of MEK, ERK, RSK and RI in SK-MEL-28 cells; experiment: Immunoblotting and pull-down of biotinylated RI after kinase inhibitor treatment; type: cell-based, human; details: for phosphorylation of MEK / phosphorylation of ERK and RSK: SK-MEL-28, 24 h; for phosphorylation of MEK: bosutinib 5 μM, crizotinib 2 μM, PD 0332991 2 μM, selumetinib 10 nM, dabrafenib 10 nM, trametinib 1 nM; for phosphorylation of ERK and RSK: same inhibitor concentrations as FIG. 6; for phosphorylation of RI (α-pSer, α-pThr): biotinylated RI captured from SK-MEL-28 cells, 24 h inhibitor treatment
Experimental: FIGS. 6A-6B are immunoblots showing that inhibition of the ERK pathway prevents the phosphorylation of RI in SK-MEL-28 cells. Cells transfected to produce biotinylated RI were treated with bosutinib (5 μM), crizotinib (2 μM), PD 0332991 (2 μM), selumetinib (10 nM), dabrafenib (10 nM), or trametinib (1 nM) for 24 h. (A) Treatment with inhibitors of non-ERK pathway kinases has no effect on the phosphorylation of MEK, ERK, or RSK in cell lysates. Treatment with dabrafenib reduces the phosphorylation of MEK (α-pMEK ½ lane) as well as that of ERK and RSK (α-pERK ½, and α-pRSK lanes). Treatment with selumetinib and trametinib reduces the phosphorylation of ERK and RSK. (B) Treatment with inhibitors of non-ERK pathway kinases has no effect on phosphorylation of biotinylated RI, which was captured by using streptavidin-coated magnetic beads. Inhibition of ERK-pathway kinases diminishes phosphorylation of RI (α-pThr, and α-pSer lanes).
The inventors further confirmed the apparent effect of kinase inhibitors on RI phosphorylation by immunoblotting. Biotinylated RI was isolated by using streptavidin-coated magnetic beads from SK-MEL-28 cells after transient transfection for 48 h. To detect phosphorylated species, we used α-pSer or α-pThr. […] These biochemical data provide direct evidence that kinases in the ERK pathway are indeed responsible for phosphorylating RI, in agreement with the observed synergism.
Cells grown in a 10-cm dish were lysed with 1 mL of M-PER™ Mammalian Protein Extraction Reagent (a mammalian protein extraction reagent that contains a mild, nondenaturing detergent) containing PIERCE™ Protease Inhibitor Tablets (tablets containing protease inhibitors AEBSF, aprotinin, bestatin, E-64, leupeptin, and pepstatin A), PIERCE™ Phosphatase Inhibitor Tablets (sodium fluoride, sodium orthovanadate, sodium pyrophosphate, and beta-glycerophosphate for broad-spectrum inhibition of phosphatase activity), and DTT (1 mM). Cell lysates were subjected to centrifugation for 10 min at 14,000 g to remove cell debris, and the total protein concentration in the supernatant was determined with a Bradford protein assay. Protein (˜30 μg) was separated by SDS-PAGE using a gel from Biorad (Hercules, CA), and the resulting gel was subjected to transfer to a PVDF membrane with an IBLOT® 2 (a dry transfer device that performs western blotting transfer without the need for liquid buffers) dry transfer system. The membrane was blocked for 1 h in a solution of BSA (5% w/v) in TBS-Tween (TBS-T), washed, and then incubated overnight at 4° C. with an antibody (1:500 dilution) in TBS-T containing BSA (5% w/v). After another wash with TBS-T, membranes were incubated with secondary antibody (1:3000 dilution), washed again, and then detected with an Amersham ECL Select Western Blotting Detection Reagent and by an ImageQuant™ LAS4000 instrument from GE Healthcare (Marlborough, MA).
For pull-down assays, after isolation of the total protein, samples were incubated overnight at 4° C. with Streptavidin […]® (magnetic particles coated with streptavidin) Paramagnetic Particles from Promega. The beads were washed (3×) with PBS containing 1 mM DTT. Samples were eluted with 50 μL of SDS gel-loading dye and processed further for immunoblotting.

[5] = test system: human melanoma cells (SK-MEL-28, A375, Malme-3M); experiment: Assay of cell viability with two drugs, melanoma cell lines; type: cell-based; details: across three melanoma cell lines (FIG. 5)
Experimental: None of the agents were toxic to normal skin fibroblasts at the tested doses (FIG. 10).
as §3, §4

V600E/K variants of BRAF = details: Kefford et al., 2010; King et al., 2013; cited from earlier work
H358 cells (KRAS G12C) [6] = experiment: Assay of cell viability with a single drug (MTS assay), H358; type: cell-based, human
Experimental: as §1, §2

Molecule	Synergism with ptRNase? [2]	EC50 ([1]; Homo sapiens)	phosphorylation of MEK [4]	phosphorylation of ERK and RSK [4]	phosphorylation of RI (α-pSer, α-pThr) [4]	also measured
C=CC(=O)N1CC(N2CCN(C(=O)CNc3cc(C4(C)CC4)c(Cl)cc3O)CC2)C1 [ARS-853]	Yes	–	–	–	–	EC50 [1]: 74 ± 8 µM; synergy with the ptRNase judged by combination index (CI) ([2]; A549, 5×5 concentration matrix, kinase inhibitor 1 h then ptRNase, 48 h): additive effect; effect of combination with the ptRNase (H358 cells (KRAS G12C) [3]): enhanced the efficacy of both agents; cellular inhibitory activity against the G12C variant of KRAS (G12C variant of KRAS): robust cellular inhibitory activity
COc1cc(Nc2c(C#N)cnc3cc(OCCCN4CCN(C)CC4)c(OC)cc23)c(Cl)cc1Cl [Bosutinib]	–	0.73 ± 0.06 µM	–	–	–	–
C[C@@H](Oc1cc(-c2cnn(C3CCNCC3)c2)cnc1N)c1c(Cl)ccc(F)c1Cl [Crizetinib]	–	0.11 ± 0.02 µM	insignificant effects	insignificant effects	Strong bands for phosphorylated RI	–
CC(C)(C)c1nc(-c2cccc(NS(=O)(=O)c3c(F)cccc3F)c2F)c(-c2ccnc(N)n2)s1 [Dabrafenib]	Yes	40 ± 5 µM	only a weak band of phosphorylated MEK	no detectable phosphorylation	no detectable phosphorylation	effect of combination with trametinib (without ptRNase) [5]: additive effect; synergy of combination with the ptRNase [5]: strong synergy; inhibitory activity against the V600E/K variants of BRAF (V600E/K variants of BRAF): robust inhibitory activity
CC(=O)c1c(C)c2cnc(Nc3ccc(N4CCNCC4)cn3)nc2n(C2CCCC2)c1=O [PD 0332991]	No	0.24 ± 0.04 µM	insignificant effects	insignificant effects	Strong bands for phosphorylated RI	–
Cn1cnc2c(F)c(Nc3ccc(Br)cc3Cl)c(C(=O)NOCCO)cc21 [Selumetinib]	–	43 ± 5 µM	–	–	–	–
CC(=O)Nc1cccc(-n2c(=O)n(C3CC3)c(=O)c3c(Nc4ccc(I)cc4F)n(C)c(=O)c(C)c32)c1 [Trametinib]	–	5.7 ± 0.6 µM	–	–	–	–
R4C/G38R/R39G/N67R/G89R/S90R/V118C RNase 1 (protein, UniProt P07998 29-156, looked up, variant R4C G38R R39G N67R G89R S90R V118C, gift from Quintessence Biosciences) Ribonuclease pancreatic: KESCAKKFQRQHMDSDSSPSSSSTYCNQMMRRRNMTQRGCKPVNTFVHEPLVDVQNVCFQEKVTCKRGQGNCYKSNSSMHITDCRLTNRRRYPNCAYRTSPKERHIIVACEGSPYVPCHFDASVEDST	–	–	–	–	–	EC50 [1]: 62 ± 7 µM; EC50 (H358 cells (KRAS G12C) [6]; H358 cells (KRAS G12C), single agent, mean ± SEM, n = 3): 3.6 ± 0.6 µM; cytotoxicity to H358 cells compared to A549 cells (H358 cells (KRAS G12C) [6]; H358 versus A549): 20 fold

— US12195771B2, “Combination chemotherapy for the treatment of cancer” (WISCONSIN ALUMNI RESEARCH FOUNDATION, priority 2017, dated 2025)
